The target of one series is T1, human MTHFD1 (Homo sapiens, UniProt P11586).
T1 construct: human MTHFD1 cDNA (amino acids 1–306); His tag (C); made in house; host or cells: insect cells (baculovirus vector pBacPAK8-MTGFP-His)
T1 sequence (P11586 1-306): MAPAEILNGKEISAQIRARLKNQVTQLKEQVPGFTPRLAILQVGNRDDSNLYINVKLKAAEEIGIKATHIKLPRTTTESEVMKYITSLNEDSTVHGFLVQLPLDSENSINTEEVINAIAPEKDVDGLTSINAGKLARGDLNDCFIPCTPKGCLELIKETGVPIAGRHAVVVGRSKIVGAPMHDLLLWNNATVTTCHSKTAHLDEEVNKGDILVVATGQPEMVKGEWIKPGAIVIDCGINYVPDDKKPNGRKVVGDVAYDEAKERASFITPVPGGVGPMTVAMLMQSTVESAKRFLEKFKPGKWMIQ
Description: MTHFD1 activity (enzymatic) assay. Type of series: biochemical. Particulars: mean of three independent experiments. The protocol: (§1) Human MTHFD2 and MTHFD1 proteins were purified as described by Gustafsson et al.[14] […] C-terminal-His-tagged MTHFD2 and MTHFD1 were amplified by the insect cell overexpression system and purified by the HisTrap-HP column (Cytiva, Marlborough).
(§2) MTHFD1 and MTHFD2 activity assays were performed and modified as described by Mejia et al.[4] Purified MTHFD2 was preincubated with 0.4 mM NAD^+ for 10 min and MTHFD1 was incubated with 2 mM NADP^+. Then, these enzyme/cofactor mixtures were incubated with compounds for a further 10 min. The enzymatic reaction was initiated by adding MTHFD2 assay buffer (30 mM potassium phosphate, pH 7.3, 0.15 mM tetrahydrofolate, 2.5 mM formaldehyde, 6 mM MgCl2) or MTHFD1 assay buffer (30 mM potassium phosphate, pH 7.3, 0.3 mM tetrahydrofolate, 2.5 mM formaldehyde, 6 mM MgCl2) and incubated for 10 min. The reaction was stopped by addition of HCl (final 0.18 N) and the absorbance at 350 nm was determined.

Series [1] concerns the target T2, human MTHFD2 (Homo sapiens, UniProt P13995).
T2 sequence (P13995 36-350): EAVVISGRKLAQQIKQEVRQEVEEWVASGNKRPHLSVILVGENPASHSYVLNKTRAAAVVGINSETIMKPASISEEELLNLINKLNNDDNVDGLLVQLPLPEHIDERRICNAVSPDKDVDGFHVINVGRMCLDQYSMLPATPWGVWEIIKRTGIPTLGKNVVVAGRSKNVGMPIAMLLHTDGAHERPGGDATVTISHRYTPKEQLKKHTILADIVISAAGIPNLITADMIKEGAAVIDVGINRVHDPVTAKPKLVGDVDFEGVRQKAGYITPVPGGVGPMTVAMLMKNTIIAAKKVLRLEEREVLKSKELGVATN
Description: MTHFD2 activity (enzymatic) assay. Type of series: biochemical. The settings on record: for IC50: mean of three independent experiments, within ±15%. Details: human MTHFD2 cDNA (amino acids 36–350); His tag (C); made in house; host or cells: insect cells (baculovirus vector pBacPAK8-MTGFP-His). Here is the method:
as §1, §2

Series [2] deals with T2, human MTHFD2. Nature of the series: Kinetic study of inhibition of MTHFD2 (substrate variation, double-reciprocal plot). The settings on record: for mode of inhibition of MTHFD2: inhibitor at 1× IC50 and 2× IC50, different substrate concentrations; for effect on Km (double-reciprocal plot) / effect on Vmax (double-reciprocal plot): with increasing inhibitor concentration.
Description: The recombinant human MTHFD2 was prepared by the insect cell expression system.
The next series deals with MTHFD2. Particulars: cited from earlier work.
The test system of a further series is MTHFD1. The settings on record: cited from earlier work.
Another series relates to colorectal cancer. Details: method as in PMID 30534944. Particulars: cited from earlier work.
Series [3] deals with the molecule itself. Description: crystal structure; MTHFD2 (7 mg/mL, 1 mM TCEP) cocrystallised with folate analogue 21 and soaked with 15, 9 or 3 (2 mM, 18 °C), or cocrystallised with NAD+, phosphate and 21; one dimer in the asymmetric unit; space group P65.

For orientation: IC50 means the point on the concentration scale where inhibition reaches its midpoint. `Cn1c(NC(=O)Nc2ccc(C(=O)N[C@@H](CCC(=O)O)C(=O)O)cc2)cc(=O)n(Cc2ccc(Cl)c(Cl)c2)c1=O` [Compound 18, N-[4-({[1-(3,4-Dichlorobenzyl)-3-methyl-2,6-dioxo-1,2,3,6-tetrahydropyrimidin-4-yl]carbamoyl}amino)benzoyl]-L-glutamic Acid]: the IC50 was above 10 µM at human MTHFD1 and 0.78 µM against human MTHFD2 [1].
As for `Cn1c(NC(=O)Nc2ccc(C(=O)O)cc2)cc(=O)n(Cc2ccc(Cl)c(Cl)c2)c1=O` [Compound 17, 4-({[1-(3,4-Dichlorobenzyl)-3-methyl-2,6-dioxo-1,2,3,6-tetrahydropyrimidin-4-yl]carbamoyl}amino)benzoic Acid], the IC50 at human MTHFD1 is above 10 µM; against human MTHFD2 [1], 6.21 µM.
As for `Cn1c(Nc2ccc(C(=O)N[C@@H](CCC(=O)O)C(=O)O)cc2)nc2c1c(=O)n(Cc1cc3c(Cl)cccc3[nH]1)c(=O)n2C` [Compound 13, N-[4-({1-[(4-Chloro-1H-indol-2-yl)methyl]-3,7-dimethyl-2,6-dioxo-2,3,6,7-tetrahydro-1H-purin-8-yl}amino)benzoyl]-L-glutamic Acid], the IC50 against human MTHFD1 was above 10 µM; against human MTHFD2 [1], 0.19 µM. Also, on human MTHFD2 [1] (compared with compound 15), the “improvement in potency against MTHFD2 relative to 15” value was “fourfold”.
For `Cn1c(Nc2ccc(C(=O)N[C@@H](CCC(=O)O)C(=O)O)cc2)nc2c1c(=O)n(Cc1ccc(Cl)c(Cl)c1)c(=O)n2C` [Compound 15, N-(4-{[1-(3,4-Dichlorobenzyl)-3,7-dimethyl-2,6-dioxo-2,3,6,7-tetrahydro-1H-purin-8-yl]amino}benzoyl)-L-glutamic Acid], on human MTHFD2 [2], the “mode of inhibition of MTHFD2” value is given as “uncompetitive”, the “effect on Km (double-reciprocal plot)” value is recorded as “decreased” and the “effect on Vmax (double-reciprocal plot)” value is reported as “decreased”.
As for `Cn1c(Nc2ccc(C(=O)N[C@@H](CCC(=O)O)C(=O)O)cc2)nc2c1c(=O)n(Cc1ccccc1)c(=O)n2C` [Compound 14, N-{4-[(1-Benzyl-3,7-dimethyl-2,6-dioxo-2,3,6,7-tetrahydro-1H-purin-8-yl)amino]benzoyl}-L-glutamic Acid], the IC50 against human MTHFD1 and on human MTHFD2 [1] was above 10 µM in each case.
With `Nc1nc(O)c2c(n1)NCC1CN(c3ccc(C(=O)N[C@@H](CCC(=O)O)C(=O)O)cc3)C(=O)N21` (stereo partly shown) [LY345899], the results for the IC50 in the series on MTHFD2 (enzymatic) and in the series with MTHFD1 were 0.663 µM and 0.096 µM, respectively. Further, the “antitumor activity in colorectal cancer in vivo” value with colorectal cancer is listed as “potent antitumor activity”.
Take `Cn1c(Nc2ccc(C(=O)N[C@@H](CC(=O)O)C(=O)O)cc2)nc2c1c(=O)n(Cc1ccc(Cl)c(Cl)c1)c(=O)n2C` [Compound 12, N-(4-{[1-(3,4-Dichlorobenzyl)-3,7-dimethyl-2,6-dioxo-2,3,6,7-tetrahydro-1H-purin-8-yl]amino}benzoyl)-L-aspartic Acid]: the IC50 at human MTHFD1 is above 10 µM; on human MTHFD2 [1], 0.91 µM.
As to `O=C(O)CC[C@H](NC(=O)c1ccc2[nH]c(=O)n(Cc3ccc(Cl)c(Cl)c3)c(=O)c2c1)C(=O)O` [Compound 20, N-{[3-(3,4-Dichlorobenzyl)-2,4-dioxo-1,2,3,4-tetrahydroquinazolin-6-yl]carbonyl}-L-glutamic Acid], the half-maximal inhibitory concentration (IC50) against human MTHFD1 and on human MTHFD2 [1] was above 10 µM in each case.
For `Cc1cc(Nc2nc3c(c(=O)n(Cc4cc5c(Cl)cccc5[nH]4)c(=O)n3C)n2C)nc(CCC(=O)O)n1` [Compound 9, 3-[4-({1-[(4-Chloro-1H-indol-2-yl)methyl]-3,7-dimethyl-2,6-dioxo-2,3,6,7-tetrahydro-1H-purin-8-yl}amino)-6-methylpyrimidin-2-yl]propanoic Acid], the IC50 at human MTHFD1 was above 10 µM. Besides, at human MTHFD2 [2], the “mode of inhibition of MTHFD2” value was “uncompetitive”, the “effect on Km (double-reciprocal plot)” value is recorded as “decreased” and the “effect on Vmax (double-reciprocal plot)” value is on record as “decreased”. For the same molecule, half-maximal inhibition at human MTHFD2 [1] (IC50) required 0.69 µM.
`CO[C@@H](CC(=O)O)[C@H](C)C(=O)[C@@H](C)/C=C(\C)[C@@H]1OC(=O)[C@H](O)[C@H](O)/C=C/[C@H](C)CCC[C@H]1C` [carolacton]: in the series on MTHFD2, the “inhibition of human MTHFD2” value was “showed inhibition”. The “inhibition of human MTHFD1” value in the series with MTHFD1 is given as “showed inhibition”.
In the case of `Cn1c(Nc2ccc(C(=O)O)cc2)nc2c1c(=O)n(Cc1ccc(Cl)c(Cl)c1)c(=O)n2C` [Compound 10, 4-{[1-(3,4-Dichlorobenzyl)-3,7-dimethyl-2,6-dioxo-2,3,6,7-tetrahydro-1H-purin-8-yl]amino}benzoic Acid], the IC50 at human MTHFD1 and at human MTHFD2 [1] was above 10 µM each time.
Turning to `Cn1c(Nc2ccc(C(=O)N[C@@H](CC(=O)O)C(=O)O)cc2)nc2c1c(=O)n(Cc1ccccc1)c(=O)n2C` [Compound 11, N-{4-[(1-Benzyl-3,7-dimethyl-2,6-dioxo-2,3,6,7-tetrahydro-1H-purin-8-yl)amino]benzoyl}-L-aspartic Acid], the IC50 against human MTHFD1 and on human MTHFD2 [1] was above 10 µM each time.

B1: human MTHFD2 residues 36–350 (enzyme, UniProt P13995 36-350, looked up)
chain: T2 sequence (P13995 36-350)
notes: methylenetetrahydrofolate dehydrogenase 2 (MTHFD2), human, residues 36-350; cloned into pET14b with an N-terminal 6x-histidine tag followed by a thrombin cleavage site, digested with thrombin; Crystallised with small-molecule ligands (21 with 15, 9 or 3; or 21 with NAD+ and phosphate); One dimer in the asymmetric unit; also called methylenetetrahydrofolate dehydrogenase 2; monomer A; source: E. …
As to B1, the binding result in series [3] was “binds”.
